According to ChEMBL document CHEMBL1150791, “blaVIM-2-harboring integrons isolated in India, Russia, and the United States arise from an ancestral class 1 integron predating the formation of the 3' conserved sequence” (2007):

Tested on: Pseudomonas aeruginosa
Assay: Antibacterial activity against blaVIM2-harboring integrons containing Pseudomonas aeruginosa 42 isolate from ventilator-associated pneumonia patient
Type: functional

Compound	Activity [µg/mL]
NCC[C@H](O)C(=O)N[C@@H]1C[C@H](N)[C@@H](O[C@H]2O[C@H](CN)[C@@H](O)[C@H](O)[C@H]2O)[C@H](O)[C@H]1O[C@H]1O[C@H](CO)[C@@H](O)[C@H](N)[C@H]1O [AMIKACIN]	8
C[C@H]1[C@H](NC(=O)/C(=N\OC(C)(C)C(=O)O)c2csc(N)n2)C(=O)N1S(=O)(=O)O [AZTREONAM]	>256
CO/N=C(\C(=O)N[C@@H]1C(=O)N2C(C(=O)[O-])=C(C[N+]3(C)CCCC3)CS[C@H]12)c1csc(N)n1 [CEFEPIME]	>256
CC(C)(O/N=C(\C(=O)N[C@@H]1C(=O)N2C(C(=O)[O-])=C(C[n+]3ccccc3)CS[C@H]12)c1csc(N)n1)C(=O)O [CEFTAZIDIME]	96
O=C(O)c1cn(C2CC2)c2cc(N3CCNCC3)c(F)cc2c1=O [CIPROFLOXACIN]	>32
C[C@@H](O)[C@H]1C(=O)N2C(C(=O)O)=C(SCCNC=N)C[C@H]12 [IMIPENEM ANHYDROUS]	>32
C[C@@H](O)[C@H]1C(=O)N2C(C(=O)O)=C(S[C@@H]3CN[C@H](C(=O)N(C)C)C3)[C@H](C)[C@H]12 [MEROPENEM]	>32
CCN1CCN(C(=O)N[C@@H](C(=O)N[C@@H]2C(=O)N3[C@@H]2SC(C)(C)[C@@H]3C(=O)O)c2ccccc2)C(=O)C1=O [PIPERACILLIN]	>256
COLISTIN	1
